{"source": "patent US9187518B2", "about": "“Antiangiogenic brassinosteroid compounds” (CONSEJO NACIONAL DE INVESTIGACIONES CIENTIFICAS Y TECNICAS …, priority 2011, dated 2015)", "key": {"NF-κB p65 subunit": {"test_system": "NF-κB p65 subunit", "assay": "NF-κB p65 nuclear translocation in LPS-stimulated J774A.1 cells (IFI)", "assay_type": "cell-based, murine", "conditions": "J774A.1 induced with LPS 8 h, 40 μM (LPS only 79.4±1.2)", "procedure": "J774A.1 cells were grown on coverslips in 24-well plates and stimulated with 100 ng/ml LPS (Sigma) in RPMI without SFB, for 8 h at 37° C.\nAfter incubation, cells were fixed in methanol at −20° C. for 10 min, and processed for indirect immunofluorescence (IFI) with antibodies directed against the glycoprotein D (gD) of HSV-1 and/or the p65 subunit of NF-κB. After three washes with PBS, the coverslips were inverted on a drop of a 1/100 dilution of the first antibody, mouse monoclonal anti-gD and/or rabbit polyclonal anti p65 (Santa Cruz Biotechnology) and incubated for 30 min at 37° C., and then subjected to three additional washes with PBS. […]\nThe images obtained with a 40× magnification were imported into NIH Image J 1.34s program (designed by Wayne Rasband, NIMH, Bethesda). […] We analyzed the total and nuclear fluorescence of the individual cells and a mean fluorescence density was obtained for each. To compare the distribution of fluorescence within the cell, the results were analyzed in a spreadsheet (Excel®). The total fluorescence intensity or nuclear density was calculated as the total or nuclear average per total or nuclear area, respectively. Then, we calculated the percentage of nuclear intensity or the percentage of nuclear intensity with respect to the total intensity for each cell. […]"}, "IL-8": {"test_system": "IL-8", "assay": "IL-8 secretion in epithelial cells (ELISA)", "assay_type": "cell-based, human"}, "HUVECs": {"test_system": "HUVECs", "assay": "Cell invasion assay (transwell, IL-6 stimulated)", "assay_type": "cell-based", "conditions": "Homo sapiens, HUVEC, 100 ng/ml IL-6, 24 h, read-out: inhibition of HUVECs invasion through the filter", "procedure": "HUVECs' invasion was evaluated using 24-well transwell cell culture chambers with 8 μm pore polycarbonate filter inserts. Cultured HUVECs were trypsinized and suspended in Medium 200 supplemented with LSGS at a concentration of 8×10^5 cells/ml. A total of 4×10^4 of cell suspension was applied to insert filters. We used 100 ng/ml of IL-6 to stimulate cell migration through the inserts. For that, we dispensed 600 μl of medium alone or with the stimulus in the lower chamber, which was then incubated for 24 h at 37° C. to allow cell migration. The insert was removed and migrated cells on the wells were fixed and stained with crystal violet. The wells were examined under a microscope. Migration was quantified by measuring the total stained cells in every well."}, "human corneal cells": {"test_system": "human corneal cells", "assay": "Cytotoxicity assay, corneal cells", "assay_type": "cell-based", "procedure": "Cell viability was determined as previously reported. The absorbance of each well was measured on a Eurogenetics MPR-A 4i microplate reader using a test wavelength of 570 nm and a reference wavelength of 630 nm. Results were expressed as a percentage of absorbance of treated cells with respect to untreated ones. The CC50 was defined as the concentration of compound that caused 50% reduction in cell viability."}, "VEGF promoter": {"test_system": "VEGF promoter", "assay": "VEGF expression (pVEGF-LUC reporter) in J774A.1 cells", "assay_type": "cell-based, murine", "text": "The expression vectors pVEGF-LUC (encoding firefly luciferase) and pβ-gal were kindly donated by members of the research group of Dr. Arzt (FCEyN, UBA, Argentina).\nJ774A.1 cells grown to confluence in 6-well micro-plates were transfected with […] of pVEGF-LUC and pβ-gal plasmids diluted in the Opti MEM medium, without serum and antibiotics, and in the presence of lipofectamine (DNA lipofectamine TM 2000) as a reagent for transfection, according to the manufacturer's instructions. After 4 to 6 h of incubation at 37° C. in 5% CO2 atmosphere, the medium was discarded and replaced by fresh Opti MEM with 10% FBS, without antibiotics, and incubated at 37° C. in atmosphere 5% CO2 for 24 h.\nThe medium was discarded and cells were stimulated with 100 ng/ml LPS and 1 ng/ml of IL-6 in Opti MEM medium with 10% FBS. After 8 h and 16 h stimulation, the medium was discarded and the cells were lifted by scrapping in 0.1 ml per well of 1× lysis buffer. The samples were stored at −70° C. until processing.\nIn order to measure luciferase activity, 20 μl of each sample were mixed with 80 μl of substrate for firefly luciferase and measured in a luminometer. In the same samples, β-gal activity was measured in 96-well microplates. To do this, 20 μl of each sample were mixed with 80 μl of substrate for β-galactosidase and incubated at 37° C. until color developed. The absorbances of these mixtures were read in an ELISA reader at 450 nm.\nWe determined the expression of luciferase as a reporter of VEGF promoter activity values obtained by normalizing the against β-gal activity for each sample.\nThus, J774A.1 cells grown in 6-well microplates were transfected with plasmids pVEGF-LUC and pβ-gal. At 24 h post-transfection, cells were stimulated with 100 ng/ml of LPS and […], in the absence and presence of […] of Compound 1. Then, we measured the expression of VEGF and β-gal in the harvested samples and determined the expression of luciferase as a reporter of VEGF promoter activity, by normalizing the values obtained with those of β-gal activity."}, "HSV-1 [1]": {"test_system": "HSV-1", "assay": "Anti-HSV-1 activity (multiplication and viral spreading) in human conjunctival and corneal cells", "assay_type": "cell-based, Herpes simplex virus type 1"}, "HSV-1 [2]": {"test_system": "HSV-1", "assay": "Murine model of HSV-1 corneal infection (herpetic stromal keratitis, HSK)", "assay_type": "in vivo, mice"}}}
{"smiles": "CC[C@@H](C(C)C)[C@H](O)[C@@H](O)[C@@H](C)[C@H]1CC[C@H]2[C@@H]3CCC4=CC(=O)CC[C@]4(C)[C@H]3CC[C@]12C", "note": "[Compound 1, (22S,23S)-22,23-dihydroxystigmast-4-en-3-one]", "values": [{"measurement": "percentage of cells positive for NF-κB translocation to the nucleus", "setting": "NF-κB p65 subunit", "value": "87.9±0.2", "unit": "%"}, {"measurement": "IL-8 secretion", "setting": "IL-8; HSV-1 infected HCLE cells, 40 μM, 24 h (untreated infected 142.9±0.5)", "value": "163.6 ± 0.4", "unit": "pg/mL"}, {"measurement": "IL-8 secretion", "setting": "IL-8; HSV-1 infected IOBA-NHC cells, 40 μM, 24 h (untreated infected 252±7.8)", "value": "471.8 ± 30", "unit": "pg/mL"}, {"measurement": "IL-8 secretion", "setting": "IL-8; uninfected HCLE cells, compound alone, vs basal level", "value": "considerably increased"}, {"measurement": "IL-8 secretion", "setting": "IL-8; uninfected IOBA-NHC cells, compound alone, vs basal level", "value": "considerably increased"}, {"measurement": "inhibition at 10 µM", "setting": "HUVECs; 10 μM", "value": 18.4, "unit": "%"}, {"measurement": "inhibition at 20 µM", "setting": "HUVECs; 20 μM", "value": 26.1, "unit": "%"}, {"measurement": "inhibition at 40 µM", "setting": "HUVECs; 40 μM", "value": 67.5, "unit": "%"}, {"measurement": "cytotoxicity", "setting": "human corneal cells", "value": "no cytotoxicity"}, {"measurement": "VEGF expression (luciferase normalized to β-gal, VEGF/β-gal)", "setting": "VEGF promoter; 100 ng/ml LPS 8 h, Compound 1 (stimulated untreated 93201.5±26770.4)", "value": "22098.5±4052.4"}, {"measurement": "VEGF expression (luciferase normalized to β-gal, VEGF/β-gal)", "setting": "VEGF promoter; IL-6 16 h, Compound 1 (stimulated untreated 30929.5±5464)", "value": "17900±2689.7"}, {"measurement": "VEGF expression (luciferase normalized to β-gal)", "setting": "VEGF promoter; no stimulus, compound alone, vs baseline", "value": "did not induce the expression of VEGF"}, {"measurement": "HSV-1 multiplication and viral spreading", "setting": "HSV-1 [1]; human conjunctival cells", "value": "prevents"}, {"measurement": "selectivity indices (SI)", "setting": "HSV-1 [1]; human conjunctival cells", "value": 13.2}, {"measurement": "HSV-1 multiplication and viral spreading", "setting": "HSV-1 [1]; human corneal cells", "value": "prevents"}, {"measurement": "selectivity indices (SI)", "setting": "HSV-1 [1]; human corneal cells", "value": 9.3}, {"measurement": "antiviral activity in vivo", "setting": "HSV-1 [2]; HSV-1 infected mice", "value": "no antiviral activity in vivo"}, {"measurement": "signs of keratitis", "setting": "HSV-1 [2]; administered during the first 3 days after HSV-1 infection", "value": "significantly restrained"}, {"measurement": "incidence and severity of HSK", "setting": "HSV-1 [2]; murine model of HSV-1 corneal infection, in presence of replicative virus and after immune response triggered", "value": "significantly decreases"}, {"measurement": "incidence and severity of neovascularization in infected corneas", "setting": "HSV-1 [2]; treated from day 1 p.i. onwards, and at onset of disease, 6 days p.i. (data not shown)", "value": "decreased"}]}
